Activity calls are given as the source filed them.
Legend:
[1] = target: T1, Caspase-6 (Homo sapiens, UniProt P55212); experiment: human caspase-6 inhibitors, dose response, biochemical, VEID-R110 fluorescence, cherry-pick (AID 720632)
T1 sequence (P55212 whole entry): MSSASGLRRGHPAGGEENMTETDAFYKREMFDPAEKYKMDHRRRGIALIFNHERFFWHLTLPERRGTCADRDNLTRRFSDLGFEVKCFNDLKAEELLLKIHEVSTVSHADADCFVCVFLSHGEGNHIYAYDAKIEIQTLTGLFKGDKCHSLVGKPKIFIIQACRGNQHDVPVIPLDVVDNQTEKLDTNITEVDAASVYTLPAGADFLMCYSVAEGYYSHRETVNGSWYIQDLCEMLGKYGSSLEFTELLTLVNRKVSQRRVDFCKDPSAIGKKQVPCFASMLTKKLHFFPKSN

[2] = test system: HEK293; experiment: inhibitors of LMP1-driven NF-kB reporter, dose response, cell-based, HEK293, luciferase, cherry-pick (AID 588343); assay type: functional; settings: Homo sapiens
[3] = Shn3 3'UTR reporter inhibitors, dose response, cell-based, Clone20 osteoblasts, firefly luciferase, cherry-picked (AID 624132); assay type: functional;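 also: firefly luciferase luminescence from reporter carrying the Shn3 3'UTR in osteoblasts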
[4] = HepG2 cell cytotoxicity, dose response, cytotoxicity control for Shn3 inhibitor project, CellTiter-Glo, cherry-picked (AID 624134); assay type: functional, cell-based
[5] = control 3'UTR Renilla luciferase suppression, dose response, counter-screen for Shn3 inhibitor project, cell-based, Clone20-Shn3RL, cherry-picked (AID 624133); assay type: functional
[6] = A High Throughput Confirmatory Assay used to Identify Novel Compounds that Inhibit Mycobacterium Tuberculosis in the absence of Glycerol.; assay type: functional
[7] = Luminescence Cell-Based Dose Response HTS to Identify Inhibitors of 5'UTR Stem-Loop Driven Prion Protein mRNA Translation in H4 Neuroglioblastoma Cells. [Related pubchem assays: 1827 (Project Summary), 1813 (Primary HTS)]; assay type: functional
[8] = inhibitors of SNCA 5'UTR-driven reporter translation, confirmation, H4 neuroglioma cells, luminescence (AID 1988); assay type: functional, cell-based
[9] = target: T2, Rac GTPase-activating protein 1 (Homo sapiens, UniProt Q9H0H5); experiment: MgcRacGAP GTPase-activating activity inhibitors, confirmation, biochemical, ADP Hunter fluorescence, primary and confirmatory (AID 624330); assay type: functional
T2 sequence (Q9H0H5 whole entry): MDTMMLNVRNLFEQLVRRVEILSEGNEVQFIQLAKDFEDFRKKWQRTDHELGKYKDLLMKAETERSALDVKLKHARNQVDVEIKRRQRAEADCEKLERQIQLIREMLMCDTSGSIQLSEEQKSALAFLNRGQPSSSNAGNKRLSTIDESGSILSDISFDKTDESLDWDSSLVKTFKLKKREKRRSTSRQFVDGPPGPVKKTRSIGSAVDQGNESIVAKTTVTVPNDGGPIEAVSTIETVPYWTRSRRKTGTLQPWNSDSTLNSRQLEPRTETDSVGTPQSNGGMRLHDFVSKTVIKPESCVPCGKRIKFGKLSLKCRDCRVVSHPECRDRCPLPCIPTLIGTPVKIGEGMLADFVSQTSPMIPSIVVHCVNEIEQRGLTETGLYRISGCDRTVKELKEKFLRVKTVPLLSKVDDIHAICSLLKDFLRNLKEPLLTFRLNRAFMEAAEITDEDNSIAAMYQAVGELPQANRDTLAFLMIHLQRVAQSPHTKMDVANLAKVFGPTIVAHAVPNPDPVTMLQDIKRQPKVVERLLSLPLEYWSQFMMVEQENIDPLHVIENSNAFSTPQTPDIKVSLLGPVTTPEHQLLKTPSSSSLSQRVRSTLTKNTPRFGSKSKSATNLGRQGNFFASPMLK

[10] = NIH-3T3 fibroblast cytotoxicity, dose response, cytotoxicity control, cell-based, fluorescence, Alamar Blue, secondary assay (AID 2327); assay type: functional;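 also: NIH-3T3 mouse fibroblasts cultured with fluconazole at 8 µg/mL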
[11] = C. albicans growth with fluconazole, confirmation, fluorescence, retest (AID 2467); assay type: functional, cell-based
[12] = target: T3, Microphthalmia-associated transcription factor (Homo sapiens, UniProt O75030); experiment: TRPM1 promoter luciferase signal decrease, dose response, MITF inhibitor project, cell-based, SK-MEL-5, cherry-picked, set 3 (AID 493073); assay type: functional
T3 sequence (O75030 whole entry): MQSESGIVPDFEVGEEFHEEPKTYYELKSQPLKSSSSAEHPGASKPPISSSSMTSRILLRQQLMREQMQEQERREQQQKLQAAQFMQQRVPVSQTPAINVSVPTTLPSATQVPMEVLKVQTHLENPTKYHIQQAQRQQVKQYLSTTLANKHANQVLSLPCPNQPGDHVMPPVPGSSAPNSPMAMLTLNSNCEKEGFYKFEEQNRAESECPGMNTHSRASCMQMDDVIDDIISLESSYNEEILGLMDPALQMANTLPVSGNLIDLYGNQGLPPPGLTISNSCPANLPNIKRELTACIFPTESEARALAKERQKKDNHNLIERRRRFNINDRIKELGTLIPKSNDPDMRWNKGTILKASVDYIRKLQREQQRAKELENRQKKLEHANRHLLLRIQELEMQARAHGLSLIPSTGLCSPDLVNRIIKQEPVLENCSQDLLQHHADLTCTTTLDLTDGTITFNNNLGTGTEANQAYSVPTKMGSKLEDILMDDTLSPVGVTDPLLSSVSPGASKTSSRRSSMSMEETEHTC

[13] = target: T4, Apoptotic protease-activating factor 1 (Homo sapiens, UniProt O14727); assay type: functional
T4 sequence (O14727 whole entry): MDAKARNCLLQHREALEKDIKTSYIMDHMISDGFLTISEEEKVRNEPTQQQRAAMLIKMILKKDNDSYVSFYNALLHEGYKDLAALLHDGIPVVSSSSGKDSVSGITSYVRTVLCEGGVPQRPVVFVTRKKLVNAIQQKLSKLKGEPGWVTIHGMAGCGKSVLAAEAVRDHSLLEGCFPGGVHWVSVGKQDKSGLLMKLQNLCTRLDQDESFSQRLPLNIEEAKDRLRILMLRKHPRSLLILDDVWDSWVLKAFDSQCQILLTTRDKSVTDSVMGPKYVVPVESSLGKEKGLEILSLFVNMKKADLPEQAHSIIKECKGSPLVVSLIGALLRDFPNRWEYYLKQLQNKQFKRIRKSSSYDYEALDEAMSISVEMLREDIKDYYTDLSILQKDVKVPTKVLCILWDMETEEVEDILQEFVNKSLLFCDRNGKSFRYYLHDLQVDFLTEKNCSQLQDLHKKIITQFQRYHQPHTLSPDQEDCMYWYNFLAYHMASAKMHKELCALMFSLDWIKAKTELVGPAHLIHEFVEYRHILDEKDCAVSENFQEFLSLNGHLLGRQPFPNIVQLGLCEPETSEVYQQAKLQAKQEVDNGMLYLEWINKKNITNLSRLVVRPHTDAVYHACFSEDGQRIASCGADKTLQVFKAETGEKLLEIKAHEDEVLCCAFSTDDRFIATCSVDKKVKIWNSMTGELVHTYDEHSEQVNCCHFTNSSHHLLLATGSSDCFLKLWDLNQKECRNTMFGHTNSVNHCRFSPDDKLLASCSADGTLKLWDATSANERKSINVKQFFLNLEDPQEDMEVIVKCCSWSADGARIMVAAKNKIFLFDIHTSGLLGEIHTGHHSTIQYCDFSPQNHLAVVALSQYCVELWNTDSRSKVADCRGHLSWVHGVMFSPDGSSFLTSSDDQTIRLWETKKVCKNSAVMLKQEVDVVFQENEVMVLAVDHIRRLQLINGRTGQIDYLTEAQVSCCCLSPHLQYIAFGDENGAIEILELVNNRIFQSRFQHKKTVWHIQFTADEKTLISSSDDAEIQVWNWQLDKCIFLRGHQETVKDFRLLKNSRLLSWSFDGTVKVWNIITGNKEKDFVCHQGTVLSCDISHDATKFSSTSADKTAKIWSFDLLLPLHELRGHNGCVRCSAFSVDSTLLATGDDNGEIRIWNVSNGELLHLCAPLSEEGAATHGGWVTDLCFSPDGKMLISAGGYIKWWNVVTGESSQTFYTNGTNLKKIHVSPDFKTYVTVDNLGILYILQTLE

[14] = target: Paired box protein Pax-8 (Homo sapiens, UniProt Q06710); experiment: inhibitors of PAX8-driven TPO luciferase reporter, dose response, RMG-I cells, cherry-pick (AID 687027); assay type: functional, cell-based;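 also: luciferase reporter driven by Pax8 target thyroperoxidase promoter measured by SteadyGlo luminescence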
Paired box protein Pax-8, sequence (Q06710 whole entry): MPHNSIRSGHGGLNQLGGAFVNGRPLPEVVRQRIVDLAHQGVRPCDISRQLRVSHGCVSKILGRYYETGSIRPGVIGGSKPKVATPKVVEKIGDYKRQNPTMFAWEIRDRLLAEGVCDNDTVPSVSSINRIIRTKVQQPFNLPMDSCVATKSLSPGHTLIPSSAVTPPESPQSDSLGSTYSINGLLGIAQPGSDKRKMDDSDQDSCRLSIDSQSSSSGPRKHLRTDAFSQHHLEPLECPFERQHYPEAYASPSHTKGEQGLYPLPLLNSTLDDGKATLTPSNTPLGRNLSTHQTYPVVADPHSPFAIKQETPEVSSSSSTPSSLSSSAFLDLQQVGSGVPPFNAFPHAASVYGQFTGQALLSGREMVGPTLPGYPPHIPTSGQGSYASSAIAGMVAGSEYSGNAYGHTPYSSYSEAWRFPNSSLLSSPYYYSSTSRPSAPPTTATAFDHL

[15] = non-specific cell cytotoxicity, dose response, cytotoxicity control for PAX8 inhibitor project, plate reader, dry powder samples (AID 743021); assay type: functional, cell-based

O=C(O)c1ccccc1NS(=O)(=O)c1ccc(NN=Cc2ccccc2F)c([N+](=O)[O-])c1
AC50 [1]: 19 µM (active)

COCC(=O)N1CCC(Oc2ccc(C(=O)N3C[C@H]4CC[C@H]3C4)cc2)CC1
AC50 [2]: > 350 µM (inactive)

Oc1ccc(/N=C/c2c(O)ccc3ccccc23)cc1
AC50 [1]: 10 µM (active)

COc1ccc(C(=O)Nc2ccc(N3CCN(C(=O)c4ccccc4C)CC3)cc2)cc1
AC50 [2]: 4.67 µM (active)

O=C(COC(=O)c1ccc([N+](=O)[O-])o1)Nc1ccc(Br)cc1F
AC50 [1]: 40.1 µM (active)

O=C(Nc1ccc(Br)cc1)c1ccc(F)c(S(=O)(=O)NCc2cccs2)c1
AC50 [3]: 3.05 µM (active) | AC50 [4]: 4.35 µM (active) | AC50 [5]: 6.05 µM (active)

Nc1cc([N+](=O)[O-])cc2oc(-c3ccccc3)cc12
IC50 [6]: > 100 µM (active)

Cc1ccccc1C(=O)N1CCN(c2ccc(NC(=O)c3cccs3)cc2)CC1
AC50 [2]: 0.788 µM (active)

O=C1NC(=O)/C(=C\c2ccc(OCc3cccc(C(=O)O)c3)c(Cl)c2)N1
AC50 [2]: 6.47 µM (active) | EC50 [7]: 10.6 µM (active) | EC50 [8]: 9.49 µM (inconclusive)

O=C1NN(c2ccc(Br)cc2)C(=O)/C1=C\c1ccc(O)cc1O
IC50 [6]: > 100 µM (active) | IC50 [9]: 159 µM (active) | EC50 [10]: > 150 µM (inconclusive) | EC50 [11]: > 38 µM (not active)

Cc1ccc(S(=O)(=O)[N-]C2=C(n3cc[n+](CCC(C)C)c3)C(=O)c3ccccc3C2=O)cc1
AC50 [12]: 4.11 µM (active) | IC50 [13]: 12.2 µM (active)

C(=NNc1ccc2ccccc2n1)c1ccccn1
AC50 [14]: 2.95 µM (active) | AC50 [15]: 58.9 µM (active)
